From patent publication US20100048657A1, “CONTROL OF MALIGNANT CELLS PROLIFERATION THROUGH THE INHIBITION OF CASEIN KINASE 2” (CLEVELAND STATE UNIVERSITY, priority 2006, published 2010) come the findings set out here.

For one assay, the system named is MEG-01 cells. Kind of assay: Viability (proliferation) assay, Trypan blue exclusion. The note with it: for proliferation rate / cell number of MEG-01 cells: 4 days of treatment.
For assay [1], the system named is platelets from MEG-01 cells. Kind of assay: Activation and function of platelets produced by treated MEG-01 cultures (flow cytometry, clot SEM). It is filed as cell-based, human. The following applies: for function of platelets obtained in culture: platelets released from treated MEG-01 cells. As to the method: Platelets were also separated from the megakaryocytic cells, by differential centrifugation (Zunino et al., 2001), considering the big size difference between these cells (1-5 μm for platelets and 35-150 μm for megakaryocytic cell line MEG-01) and analyzed separately. Suspension cells were centrifuged first at 100 g to 150 g for 15 minutes, and then the platelets-rich supernatant was kept and centrifuged again at 800 g for 15 minutes. The platelets pellet was resuspended in the appropriate buffer (Tyrode's buffer, pH 7.4), for analysis. For impeding artefactual aggregation of platelets in the control, EDTA and RGDS or RGD were added in the cell suspension from the beginning of the centrifugations. Therefore the control was the inactivated platelets. Special caution was used in order to avoid as much as possible artefactual activation of the control, therefore centrifugations were done at room temperature, no unnecessary washing, no vortexing, gentle removal of supernatants.
Monoclonal antibody PAC-1 recognizes an epitope on the glycoprotein αIIbβ3 of activated platelets. PAC-1 binds only to the activated platelets, and so is very specific. PAC-1 will not bind EDTA and RGD or RGDS treated platelets (Shattil et al., 1987; Shattil et al., 1985; Shattil and Leavitt, 2001).
10 mg/ml RGD or RGDS and 100 mM EDTA were used for negative control (inactivated) on resting platelets.
PAC-1-FITC was purchased from Becton Dickinson Immunocytometry Systems, San Jose, Calif., USA. 20 μl PAC-1-FITC were used for 5 μl fresh platelets suspension, in Tyrode's buffer with CaCl2, as recommended for whole blood by the provider. Different agonists were used, like 1 μg/ml TRAP, 100 nM PMA, as final concentrations (Chen et al., 2004). Activation time was 10-15 minutes.
BD Biosciences protocol for staining was used, with incubation for 30 minutes, in dark, at room temperature.
CD62P is a monoclonal antibody that recognizes an epitope on P-Selectin. P-Selectin is exposed as response to agonist and is a specific sign of platelet activation. 20 μl CD62P-FITC were used for 5 μl fresh platelets suspension, in Tyrode's buffer with CaCl2. Different agonists were used, like 1 μg/ml TRAP, 100 nM PMA or 20 μM ADP as final concentrations. Activation time was 10 minutes. The staining volume was chosen by titration, small volumes giving better staining. Incubation was done in dark at room temperature for 30 minutes, as recommended by BD Biosciences. These assays were done on fresh platelets.
Human fibrinogen was conjugated with Alexa Fluor 488 fluorochrome (F-13191, from Molecular Probes, OR, USA) following recommended Molecular Probes procedure, with the modification that instead the column step, a dialysis step was chosen, in order to obtain a better attachment of dye molecules to fibrinogen. Final concentration of fibrinogen conjugated Alexa Fluor 488 was determined spectrophotometrically. For platelet activation, different agonists were used, like 1 μg/ml TRAP, 100 nM PMA or 20 μM ADP as final concentrations. Activation time was 10-15 minutes. 300 nM labeled fibrinogen was incubated as a final concentration with platelets suspension for 30 minutes, in dark, at room temperature. Fresh platelets were used.
Platelets expose PS when activated and undergo shape change. They will stain positive for AnnexinV (a marker of PS exposure) and will move up on the SSC, FSC as a result of the shape change. For this assay, AnnexinV-FITC from BDBiosciences was used, as recommended by the manufacturer with the specification that the reaction volumes were decreased. Incubation was done in dark, at room temperature for 30 minutes, after activation for 10 minutes of platelets with agonist (like 1 μg/ml TRAP, 100 nM PMA or 20 μM ADP as final concentrations).
Cell preparation and pictures were done at the Microscopy Core Facility Cleveland Clinic. Cells were grown for 4 days with DMAT 10 μM and then collected by differential centrifugation. […]
(Flow cytometry measures light scatter and fluorescence of single cells or particles in a stream.)

[2] abbreviates: 50 μM, fourth and fifth days (TBB p<0.01, DMAT p<0.005).
Setting [3] is: platelets from 10 μM treatment, agonist TRAP.

As for `CN(C)c1nc2c(Br)c(Br)c(Br)c(Br)c2[nH]1` [DMAT, 2-dimethylamino-4,5,6,7-tetrabromo-1H-benzimidazole], the “proliferation (viability) versus Control untreated (DMSO)” value in the assay on MEG-01 cells (25 μM, fourth and fifth days, p<0.01) is recorded as “very significant statistical differences”. The “proliferation rate / cell number of MEG-01 cells” value in the assay with MEG-01 cells (50 μM) was “maintained a steady number of cells for the 4 days of treatment and induced extremely significant reduction in the proliferation rate”. Also, the “proliferation (viability) versus Control untreated (DMSO)” value in the assay on MEG-01 cells (setting [2]) is recorded as “very significant statistical differences”. For the same molecule, in assay [1] (agonists: human thrombin, TRAP, ADP, PMA), the platelet shape change entry is given as “capable of undergoing shape change in response to agonists”. Further, the “clot formation by platelets” value in assay [1] (platelets from 10 μM treatment, activated with 0.5 U/ml thrombin) was “form a fibrin clot”. Besides, in assay [1] (setting [3]), the “P-Selectin exposure of activated platelets” value is given as “expose P-Selectin”, the “PAC-1 staining of activated platelets” value is given as “stain positive for PAC-1” and the “fibrinogen binding of activated platelets” value was “bind fibrinogen”. In assay [1], the “function of platelets obtained in culture” value is on record as “functional”.

As to `Brc1c(Br)c(Br)c2[nH]nnc2c1Br` [TBB, 4,5,6,7-tetrabromobenzotriazole], the “proliferation (viability) versus Control untreated (DMSO)” value in the assay on MEG-01 cells (setting [2]) is on record as “very significant statistical differences”; in the assay with MEG-01 cells (100 μM, fourth and fifth days, p<0.005), “very significant statistical differences”. Further, the “proliferation rate / cell number of MEG-01 cells” value in the assay on MEG-01 cells (100 μM) is “maintained a steady number of cells for the 4 days of treatment and induced extremely significant reduction in the proliferation rate”. In addition, the “concentration at which the inhibitor had effect” value in the assay on MEG-01 cells (proliferation arrest and induced apoptosis, TBB concentration required for the same effect as DMAT) is 50 µM. The “function of platelets obtained in culture” value in assay [1] is given as “functional”.
